# Calls of active or inactive are those of the source.
# Key:
# [1] = molecular target: T1, Short transient receptor potential channel 4 (Mus musculus, UniProt Q9QUQ5); test: calcium entry via TRPC4 opening agents – cell-based, HEK293 TRPC4/mu-opioid, Fluo-4 calcium, dose response (AID 434937); assay type: functional
# T1 sequence (Q9QUQ5 whole entry): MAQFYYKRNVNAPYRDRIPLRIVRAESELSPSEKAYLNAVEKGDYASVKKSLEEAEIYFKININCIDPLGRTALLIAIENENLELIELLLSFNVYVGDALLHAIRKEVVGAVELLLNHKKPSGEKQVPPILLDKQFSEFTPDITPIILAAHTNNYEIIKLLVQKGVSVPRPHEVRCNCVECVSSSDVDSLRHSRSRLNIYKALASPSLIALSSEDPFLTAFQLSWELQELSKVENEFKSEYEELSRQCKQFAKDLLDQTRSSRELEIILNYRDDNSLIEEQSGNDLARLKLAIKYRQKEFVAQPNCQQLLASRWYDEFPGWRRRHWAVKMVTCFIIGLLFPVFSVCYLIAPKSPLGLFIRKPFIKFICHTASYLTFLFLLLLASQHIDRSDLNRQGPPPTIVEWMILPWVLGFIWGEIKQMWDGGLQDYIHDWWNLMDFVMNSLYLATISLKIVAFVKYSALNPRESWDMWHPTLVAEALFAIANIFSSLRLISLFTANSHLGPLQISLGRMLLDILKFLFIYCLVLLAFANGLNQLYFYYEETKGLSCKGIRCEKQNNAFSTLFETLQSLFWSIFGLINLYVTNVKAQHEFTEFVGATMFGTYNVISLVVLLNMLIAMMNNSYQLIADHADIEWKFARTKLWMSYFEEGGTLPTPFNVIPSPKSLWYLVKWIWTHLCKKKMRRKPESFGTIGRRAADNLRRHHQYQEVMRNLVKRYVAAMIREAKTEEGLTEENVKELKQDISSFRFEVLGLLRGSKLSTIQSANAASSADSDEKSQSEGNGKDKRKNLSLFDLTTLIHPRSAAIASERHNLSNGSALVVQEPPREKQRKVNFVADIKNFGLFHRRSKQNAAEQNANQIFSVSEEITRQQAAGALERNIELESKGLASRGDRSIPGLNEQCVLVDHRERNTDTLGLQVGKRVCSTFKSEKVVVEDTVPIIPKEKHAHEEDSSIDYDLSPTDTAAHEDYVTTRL
# Leucine aminopeptidase = molecular target: T2, Leucine aminopeptidase (Plasmodium falciparum 3D7, UniProt Q8IL11); test: P. falciparum M17LAP inhibitors, primary screen, biochemical, fluorogenic H-Leu-NHMec substrate, 1536-well (AID 1619); assay type: functional
# T2 sequence (Q8IL11 whole entry): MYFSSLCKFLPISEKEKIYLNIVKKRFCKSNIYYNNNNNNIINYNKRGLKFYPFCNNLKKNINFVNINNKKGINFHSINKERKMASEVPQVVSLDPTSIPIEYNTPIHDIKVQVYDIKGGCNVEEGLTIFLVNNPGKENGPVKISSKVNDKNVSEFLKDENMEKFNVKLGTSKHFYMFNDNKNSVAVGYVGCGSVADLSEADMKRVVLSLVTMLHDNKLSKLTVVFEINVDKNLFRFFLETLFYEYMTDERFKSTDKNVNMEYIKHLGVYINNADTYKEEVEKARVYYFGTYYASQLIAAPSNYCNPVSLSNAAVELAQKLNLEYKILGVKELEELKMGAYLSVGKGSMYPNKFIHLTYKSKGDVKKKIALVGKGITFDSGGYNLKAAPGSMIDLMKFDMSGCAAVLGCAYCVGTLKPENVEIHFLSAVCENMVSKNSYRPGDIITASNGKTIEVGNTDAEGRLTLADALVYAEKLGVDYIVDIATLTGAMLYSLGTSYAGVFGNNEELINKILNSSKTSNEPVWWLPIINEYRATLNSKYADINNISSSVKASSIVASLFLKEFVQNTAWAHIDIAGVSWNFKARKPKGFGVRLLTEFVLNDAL
# [2] = molecular target: T3, Microphthalmia-associated transcription factor (Homo sapiens, UniProt O75030); test: reducers of TRPM1 reporter luminescence, concentration series – cell-based, SK-MEL-5, cherry-picked, set 3, MITF inhibitor project, dose response (AID 493073); assay type: functional;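 further: SK-MEL-5 melanoma cells with luciferase driven by the MITF target TRPM1 promoter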
# T3 sequence (O75030 whole entry): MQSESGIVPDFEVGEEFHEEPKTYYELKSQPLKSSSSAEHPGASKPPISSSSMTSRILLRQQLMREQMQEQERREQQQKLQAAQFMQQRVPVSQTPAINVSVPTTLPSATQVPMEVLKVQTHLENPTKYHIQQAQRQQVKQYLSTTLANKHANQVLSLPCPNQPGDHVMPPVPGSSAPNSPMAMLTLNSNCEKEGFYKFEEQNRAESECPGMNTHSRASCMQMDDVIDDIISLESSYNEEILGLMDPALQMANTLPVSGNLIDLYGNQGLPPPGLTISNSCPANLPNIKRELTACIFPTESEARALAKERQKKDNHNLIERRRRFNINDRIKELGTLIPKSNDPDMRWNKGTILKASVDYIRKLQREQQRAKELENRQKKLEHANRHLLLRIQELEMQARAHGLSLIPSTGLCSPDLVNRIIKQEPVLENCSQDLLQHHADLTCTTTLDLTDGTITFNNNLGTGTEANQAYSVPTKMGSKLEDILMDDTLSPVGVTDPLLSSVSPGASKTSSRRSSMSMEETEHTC
# [3] = molecular target: T4, High affinity choline transporter 1 (Homo sapiens, UniProt Q9GZV3); test: human choline transporter blockers, potency – cell-based, 5-point CRC, membrane potential dye, dose response (AID 504840); assay type: functional
# T4 sequence (Q9GZV3 whole entry): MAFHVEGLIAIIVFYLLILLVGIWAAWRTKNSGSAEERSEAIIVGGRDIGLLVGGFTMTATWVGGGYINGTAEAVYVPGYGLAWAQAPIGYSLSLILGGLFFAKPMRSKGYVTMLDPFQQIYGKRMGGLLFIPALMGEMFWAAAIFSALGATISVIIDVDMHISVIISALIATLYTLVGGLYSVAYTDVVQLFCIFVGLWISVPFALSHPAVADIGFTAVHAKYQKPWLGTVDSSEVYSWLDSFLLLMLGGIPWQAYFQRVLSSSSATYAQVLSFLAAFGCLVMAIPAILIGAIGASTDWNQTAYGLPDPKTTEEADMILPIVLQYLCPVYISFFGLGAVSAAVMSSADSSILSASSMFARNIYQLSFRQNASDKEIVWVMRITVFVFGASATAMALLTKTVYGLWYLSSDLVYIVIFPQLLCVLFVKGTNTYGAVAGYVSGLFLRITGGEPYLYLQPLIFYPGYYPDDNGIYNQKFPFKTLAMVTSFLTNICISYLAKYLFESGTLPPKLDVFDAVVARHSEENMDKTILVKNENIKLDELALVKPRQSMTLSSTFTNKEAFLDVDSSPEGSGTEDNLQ
# [4] = molecular target: FAD-linked sulfhydryl oxidase ALR (Homo sapiens, UniProt P55789); test: ALR-catalysed DTT oxidation blockers – biochemical, H2O2 detection, luminescence, cherry-pick, dose response (AID 493248)
# FAD-linked sulfhydryl oxidase ALR, sequence (P55789 whole entry): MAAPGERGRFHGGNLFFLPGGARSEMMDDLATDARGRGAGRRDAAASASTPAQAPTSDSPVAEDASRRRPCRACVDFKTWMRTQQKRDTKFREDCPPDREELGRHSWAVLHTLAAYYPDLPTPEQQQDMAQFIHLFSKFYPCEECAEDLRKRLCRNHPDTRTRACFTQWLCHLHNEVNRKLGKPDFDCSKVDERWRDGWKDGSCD
# Cytochrome P450 2D6 = Cytochrome P450 2D6 (Homo sapiens, UniProt P10635);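 further: CYP2D6 member of a cytochrome P450 panel assay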
# Cytochrome P450 2D6, sequence (P10635 whole entry): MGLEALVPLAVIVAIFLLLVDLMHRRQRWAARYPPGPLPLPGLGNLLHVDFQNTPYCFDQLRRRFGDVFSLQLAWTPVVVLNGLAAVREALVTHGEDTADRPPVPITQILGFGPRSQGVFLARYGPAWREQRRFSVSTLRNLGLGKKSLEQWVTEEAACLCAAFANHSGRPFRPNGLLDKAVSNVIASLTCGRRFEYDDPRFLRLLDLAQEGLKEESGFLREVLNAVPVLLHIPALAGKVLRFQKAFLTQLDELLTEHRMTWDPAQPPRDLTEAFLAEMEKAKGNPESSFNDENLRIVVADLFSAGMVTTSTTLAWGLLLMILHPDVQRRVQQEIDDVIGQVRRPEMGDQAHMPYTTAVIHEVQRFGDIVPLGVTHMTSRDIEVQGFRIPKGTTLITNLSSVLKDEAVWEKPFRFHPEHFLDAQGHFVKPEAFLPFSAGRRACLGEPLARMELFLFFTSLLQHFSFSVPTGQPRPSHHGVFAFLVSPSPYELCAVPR
# Cytochrome P450 2C19 = Cytochrome P450 2C19 (Homo sapiens, UniProt P33261); test: Cytochrome panel assay with activity outcomes. Panel member name: p450-cyp2c19 Compounds with AC50 equal or less than 10 uM are considered active; assay type: functional; conditions: read-out: AC50
# Cytochrome P450 2C19, sequence (P33261 whole entry): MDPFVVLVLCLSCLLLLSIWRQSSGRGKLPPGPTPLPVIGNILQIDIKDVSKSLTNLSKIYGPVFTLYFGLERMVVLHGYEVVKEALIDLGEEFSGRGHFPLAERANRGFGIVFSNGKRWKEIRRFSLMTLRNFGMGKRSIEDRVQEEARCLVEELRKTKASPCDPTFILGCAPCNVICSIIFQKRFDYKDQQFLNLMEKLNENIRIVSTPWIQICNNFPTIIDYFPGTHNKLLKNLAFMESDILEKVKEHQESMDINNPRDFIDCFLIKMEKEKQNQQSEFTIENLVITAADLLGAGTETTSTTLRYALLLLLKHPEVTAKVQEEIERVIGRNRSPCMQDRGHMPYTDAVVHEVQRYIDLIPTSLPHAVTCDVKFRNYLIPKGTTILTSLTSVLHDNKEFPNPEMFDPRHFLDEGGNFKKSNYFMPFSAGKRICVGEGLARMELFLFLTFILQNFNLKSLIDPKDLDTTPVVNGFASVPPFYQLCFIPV
# Cytochrome P450 2C9 = Cytochrome P450 2C9 (Homo sapiens, UniProt P11712)
# Cytochrome P450 2C9, sequence (P11712 whole entry): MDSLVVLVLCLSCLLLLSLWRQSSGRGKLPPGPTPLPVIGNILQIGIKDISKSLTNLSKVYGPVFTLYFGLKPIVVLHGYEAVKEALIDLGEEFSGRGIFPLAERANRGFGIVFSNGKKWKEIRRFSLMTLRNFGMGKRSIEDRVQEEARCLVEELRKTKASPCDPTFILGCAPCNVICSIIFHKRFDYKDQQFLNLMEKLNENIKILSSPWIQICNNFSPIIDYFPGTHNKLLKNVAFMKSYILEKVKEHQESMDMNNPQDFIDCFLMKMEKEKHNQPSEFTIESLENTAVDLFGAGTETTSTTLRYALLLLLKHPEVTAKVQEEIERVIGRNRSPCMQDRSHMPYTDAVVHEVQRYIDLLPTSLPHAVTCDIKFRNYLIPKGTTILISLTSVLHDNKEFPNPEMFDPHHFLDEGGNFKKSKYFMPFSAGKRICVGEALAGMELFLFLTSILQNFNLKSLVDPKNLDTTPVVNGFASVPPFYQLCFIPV
# Cytochrome P450 3A4 = Cytochrome P450 3A4 (Homo sapiens, UniProt P08684);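 further: CYP3A4 tested as one member of a cytochrome P450 panel screen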
# Cytochrome P450 3A4, sequence (P08684 whole entry): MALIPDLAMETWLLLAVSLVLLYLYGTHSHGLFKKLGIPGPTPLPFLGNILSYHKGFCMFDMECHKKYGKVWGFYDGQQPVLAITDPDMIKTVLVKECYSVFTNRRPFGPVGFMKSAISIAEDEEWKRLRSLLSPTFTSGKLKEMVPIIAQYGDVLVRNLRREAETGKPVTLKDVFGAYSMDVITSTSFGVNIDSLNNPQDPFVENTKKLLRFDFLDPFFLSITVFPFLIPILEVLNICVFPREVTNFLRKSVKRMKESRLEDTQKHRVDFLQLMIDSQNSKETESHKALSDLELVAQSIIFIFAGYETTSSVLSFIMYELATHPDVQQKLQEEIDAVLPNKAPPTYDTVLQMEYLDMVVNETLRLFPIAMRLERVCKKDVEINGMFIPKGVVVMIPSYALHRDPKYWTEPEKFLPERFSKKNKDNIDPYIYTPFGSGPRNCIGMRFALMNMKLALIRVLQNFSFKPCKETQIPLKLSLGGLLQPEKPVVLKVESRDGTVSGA
# [5] = Trypanosoma cruzi growth suppression in host cells – NIH3T3 host cells, beta-gal luminescence, confirmation (AID 2044); assay type: functional, cell-based;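 further: intracellular parasites grown in NIH/3T3 mouse fibroblasts as host cells; luminescent beta-galactosidase reporter signal from transgenic T. cruzi replicating inside host cells; inhibitors lower the luminescence signal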
# [6] = NIH3T3 cell viability loss – ATP luminescence, mouse fibroblasts, counter-screen, dose response (AID 2010); assay type: functional, cell-based;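 further: cells exposed to compound for about 90 hours before reading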
# Streptokinase A = molecular target: T5, Streptokinase A (Streptococcus pyogenes serotype M1, UniProt P10520); test: viability-normalized secreted streptokinase activity reduction – plasminogen activation absorbance, OD405, dose response (AID 1914); assay type: functional, Streptococcus pyogenes M1 GAS;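 further: secreted streptokinase activity via plasminogen activation per viability signal from cell pellet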
# T5 sequence (P10520 whole entry): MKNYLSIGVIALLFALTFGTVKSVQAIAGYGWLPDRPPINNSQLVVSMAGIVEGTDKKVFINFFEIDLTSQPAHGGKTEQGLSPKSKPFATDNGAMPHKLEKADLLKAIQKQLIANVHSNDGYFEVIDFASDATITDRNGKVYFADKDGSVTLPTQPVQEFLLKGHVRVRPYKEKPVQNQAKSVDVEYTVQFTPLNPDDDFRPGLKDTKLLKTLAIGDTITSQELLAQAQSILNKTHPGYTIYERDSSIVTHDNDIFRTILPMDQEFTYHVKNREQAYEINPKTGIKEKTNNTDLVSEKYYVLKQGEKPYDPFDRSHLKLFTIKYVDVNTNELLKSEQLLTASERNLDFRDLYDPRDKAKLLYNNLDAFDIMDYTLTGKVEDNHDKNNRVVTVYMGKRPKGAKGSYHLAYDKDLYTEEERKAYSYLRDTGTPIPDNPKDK
# H4 = test: Luminescence Cell-Based Dose Response HTS to Identify Activators of 5'UTR Stem-Loop Driven Prion Protein mRNA Translation in H4 Neuroglioblastoma Cells. [Related pubchem assays: 1829 (Project Summary), 1814 (Primary HTS)]; assay type: functional; conditions: Homo sapiens
# Streptococcus = test: GAS UMAA2166 growth inhibition – luminescence, BacTiterGlo, counter-screen for streptokinase expression inhibitor project, dose response (AID 1915); assay type: functional, organism-based;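 further: potency for reduction of bacterial viability or growth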
# [7] = system: Streptococcus sp. 'group A'; test: Streptococcus pyogenes SK(-)GAS viability under kanamycin – luminescence, BacTiterGlo, confirmation, counter-screen for streptokinase expression inhibitor project, dose response (AID 1900); assay type: functional, organism-based
# [8] = Luminescence Cell-Based Dose Response HTS to Identify Activators of Luciferase Translation or Activity in H4 […] Cells. [Related pubchem assays: 1829 (Project Summary), 1814 (Primary HTS)]; assay type: functional
# [9] = molecular target: T6, Polyadenylate-binding protein 1 (Homo sapiens, UniProt P11940); test: MLLE domain peptide-binding blockers, IC50 – biochemical, fluorescence polarization, FITC-PAM2 peptide, dose response (AID 602259); assay type: functional; conditions: read-out: IC50_Mean
# T6 sequence (P11940 whole entry, the tested form may be a part): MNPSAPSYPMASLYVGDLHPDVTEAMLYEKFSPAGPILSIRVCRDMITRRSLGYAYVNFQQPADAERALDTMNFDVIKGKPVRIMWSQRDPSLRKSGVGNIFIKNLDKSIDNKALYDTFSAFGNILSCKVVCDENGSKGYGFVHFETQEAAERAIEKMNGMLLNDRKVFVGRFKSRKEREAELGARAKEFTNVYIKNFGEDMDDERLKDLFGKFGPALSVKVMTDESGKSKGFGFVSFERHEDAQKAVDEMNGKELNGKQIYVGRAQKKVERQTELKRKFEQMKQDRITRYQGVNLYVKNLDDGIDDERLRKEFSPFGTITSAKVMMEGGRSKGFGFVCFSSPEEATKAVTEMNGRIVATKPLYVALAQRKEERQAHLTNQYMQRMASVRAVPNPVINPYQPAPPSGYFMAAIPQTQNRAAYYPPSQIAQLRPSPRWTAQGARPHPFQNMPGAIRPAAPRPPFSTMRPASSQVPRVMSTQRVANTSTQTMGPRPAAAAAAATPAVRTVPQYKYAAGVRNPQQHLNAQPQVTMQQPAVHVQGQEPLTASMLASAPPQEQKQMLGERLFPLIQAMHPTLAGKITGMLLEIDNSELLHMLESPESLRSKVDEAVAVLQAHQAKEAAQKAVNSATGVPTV
# [10] = molecular target: T6, Polyadenylate-binding protein 1; test: MLLE binding blockers, Cy5 peptide tracer – biochemical, fluorescence polarization, Cy5-PAM2 peptide, secondary, miRNA deadenylation inhibitor project, dose response (AID 602260); assay type: functional; conditions: read-out: IC50_Mean
# [11] = molecular target: T7, Corticotropin-releasing factor receptor 2/Corticotropin-releasing factor-binding protein (Homo sapiens, UniProt P24387+Q13324); test: activators of CRF receptor 2 with binding protein – uHTS hits, confirmation (AID 602473); assay type: functional; conditions: read-out: EC50_Mean
# T7 sequence (Q13324 whole entry): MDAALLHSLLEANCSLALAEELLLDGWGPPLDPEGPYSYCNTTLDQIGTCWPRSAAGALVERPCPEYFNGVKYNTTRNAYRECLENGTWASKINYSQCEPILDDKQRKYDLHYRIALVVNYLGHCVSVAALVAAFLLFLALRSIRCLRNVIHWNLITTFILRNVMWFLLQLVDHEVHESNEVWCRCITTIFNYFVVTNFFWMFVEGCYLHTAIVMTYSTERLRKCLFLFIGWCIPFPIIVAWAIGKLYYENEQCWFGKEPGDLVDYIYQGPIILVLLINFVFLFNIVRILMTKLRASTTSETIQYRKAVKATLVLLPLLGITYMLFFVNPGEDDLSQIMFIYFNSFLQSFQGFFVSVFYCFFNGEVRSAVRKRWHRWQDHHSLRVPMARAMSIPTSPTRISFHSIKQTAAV
# T7 sequence (P24387 whole entry): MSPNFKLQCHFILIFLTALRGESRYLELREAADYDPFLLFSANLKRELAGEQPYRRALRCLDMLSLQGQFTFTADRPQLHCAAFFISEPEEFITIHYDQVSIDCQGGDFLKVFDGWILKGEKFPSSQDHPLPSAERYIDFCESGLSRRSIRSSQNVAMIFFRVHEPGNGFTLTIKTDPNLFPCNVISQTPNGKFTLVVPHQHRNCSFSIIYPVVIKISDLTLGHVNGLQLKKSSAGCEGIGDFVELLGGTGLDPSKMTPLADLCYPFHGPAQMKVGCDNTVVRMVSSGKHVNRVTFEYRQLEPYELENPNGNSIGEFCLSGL
smiles,measurement,setting,value
COc1ccc(/C=C/CN2CCCC(C(=O)c3ccc(OC)c(F)c3)C2)cc1 (centres undefined),EC50,[1],10.6 µM (active)
CC(/C=C1\SC(=O)N(CCCC(=O)O)C1=O)=C\c1ccccc1,IC50,Leucine aminopeptidase,15.8 µM (active)
same,AC50,[2],2.36 µM (active)
same,IC50,[3],12.6 µM (active)
same,AC50,[4],4.84 µM (active)
Cc1ccc(/C=N/NC(=O)C2CCN(Cc3ccc(F)cc3Cl)CC2)o1,AC50,Cytochrome P450 2D6,35.5 µM (inconclusive)
same,AC50,Cytochrome P450 2C19,31.6 µM (inconclusive)
same,AC50,Cytochrome P450 2C9,inconclusive
same,AC50,Cytochrome P450 3A4,5.01 µM (inconclusive)
CCN1CCN(c2c(Cl)cccc2NC(=O)c2ccc([N+](=O)[O-])cc2)CC1,EC50,[1],0.421 µM (active)
Cc1cc(Br)cc(C)c1OCCCCN(C)C.O=C(O)C(=O)O,EC50,[5],0.196 µM (active)
same,AC50,Cytochrome P450 2C9,inconclusive
same,EC50,[6],> 30 µM (not active)
O=C(Nc1ccc(Cl)cc1)N1CCC(c2nc(-c3cccs3)no2)CC1,EC50,[1],3.35 µM (active)
COc1ccc(NC(=O)c2cc(-c3ccccc3Cl)no2)cc1,AC50,Cytochrome P450 2C19,2.82 µM (inconclusive)
same,AC50,Cytochrome P450 2C9,inconclusive
same,AC50,Cytochrome P450 3A4,20 µM (inconclusive)
CCOC(=O)C1(CCCc2ccccc2)CCN(Cc2cn(CC)nc2C)CC1,EC50,[1],0.119 µM (active)
O=C(COc1ccc2ccccc2c1Br)NNC(=O)Nc1ccccc1,AC50,Cytochrome P450 2C9,inconclusive
CCOc1c(OC(C)=O)ccc(/C=C/c2ccc3cccc(OC(C)=O)c3n2)c1[N+](=O)[O-],EC50,Streptokinase A,> 150 µM (not active)
same,EC50,H4,8.07 µM (active)
same,AC50,Cytochrome P450 2C9,inconclusive
same,EC50,Streptococcus,8.24 µM (active)
same,EC50,[7],1.49 µM (active)
same,EC50,[8],8.52 µM (active)
CC12CCCCN1CCCc1c2[nH]c2ccccc12 (centres undefined),EC50,[1],4.22 µM (active)
same,IC50,[9],> 66 µM (inactive)
same,IC50,[10],> 66 µM (inactive)
same,EC50,[11],4.38 µM (active)
